Here are results for 14 compounds from ChEMBL document CHEMBL3872264, “Discovery of biphenyl imidazole derivatives as potent antifungal agents: Design, synthesis, and structure-activity relationship studies” (Bioorg Med Chem, 2017).

Each structure is given as a SMILES string. ≈ marks a conversion by molar mass, not a printed value.

The test system of one data set is Candida tropicalis. As to the kind of experiment: Anti-fungal activity against Candida tropicalis CGMCC 2.3739 by broth microdilution method. Type of data set: functional.
The test system of another data set is Cryptococcus neoformans. The data set can be described thus: Anti-fungal activity against Cryptococcus neoformans CGMCC 2.3161 by broth microdilution method. Type of data set: functional.
Data set [1] has as its system Candida albicans. The data set can be described thus: Anti-fungal activity against Candida albicans CPCC 400523 by broth microdilution method. Type of data set: functional.
Data set [2] deals with Candida albicans. As to the kind of experiment: Anti-fungal activity against Candida albicans SC5314 by broth microdilution method. Type of data set: functional. Background: Dilution methods test growth across graded concentrations, often in twofold steps.
For a further data set, the system named is Aspergillus fumigatus. As to the kind of experiment: Anti-fungal activity against Aspergillus fumigatus CGMCC 3.7795 by broth microdilution method. Format: functional.
Data set [3] relates to Candida albicans. As to the kind of experiment: Anti-fungal activity against fluconazole-resistant Candida albicans 103 by broth microdilution method. Type of data set: functional.
The test system of data set [4] is Candida albicans. As to the kind of experiment: Anti-fungal activity against fluconazole-resistant Candida albicans 100 by broth microdilution method. Format: functional.
Data set [5] deals with T1, Lanosterol 14-alpha demethylase (Candida albicans (strain SC5314 / ATCC MYA-2876) (Yeast), UniProt P10613). The data set can be described thus: Inhibition of Candida albicans SC5314 CYP51 assessed as obtusifoliol composition of total sterols at 8 ug/ml by GC-MS method relative to control. The note with it: at 8 µg/mL. The arrangement: scale not given: the % may be the effect or the level left.
T1 sequence (P10613 whole entry): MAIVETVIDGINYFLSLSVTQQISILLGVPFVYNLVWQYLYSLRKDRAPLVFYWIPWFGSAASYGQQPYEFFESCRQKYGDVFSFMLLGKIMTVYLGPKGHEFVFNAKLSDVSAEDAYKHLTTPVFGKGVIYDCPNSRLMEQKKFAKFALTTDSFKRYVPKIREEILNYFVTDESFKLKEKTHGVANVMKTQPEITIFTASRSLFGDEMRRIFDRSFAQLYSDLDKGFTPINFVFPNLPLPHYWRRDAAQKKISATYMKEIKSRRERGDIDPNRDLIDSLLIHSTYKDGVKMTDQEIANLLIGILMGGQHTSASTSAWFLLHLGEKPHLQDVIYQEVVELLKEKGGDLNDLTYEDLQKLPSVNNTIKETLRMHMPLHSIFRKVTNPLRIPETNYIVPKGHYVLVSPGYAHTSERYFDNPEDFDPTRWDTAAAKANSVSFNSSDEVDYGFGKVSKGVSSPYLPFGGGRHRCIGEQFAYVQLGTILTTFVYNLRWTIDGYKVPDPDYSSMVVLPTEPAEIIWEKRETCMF

The target of data set [6] is T1, Lanosterol 14-alpha demethylase. The data set can be described thus: Inhibition of Candida albicans SC5314 CYP51 assessed as lanosterol composition of total sterols at 8 ug/ml by GC-MS method (reference value: 3.5 %). As to conditions: at 8 µg/mL. The arrangement: scale not given: the % may be the effect or the level left.
The target is the same in data set [7]. As to the kind of experiment: Inhibition of Candida albicans SC5314 CYP51 assessed as change in total sterol composition at 8 ug/ml by GC-MS method (reference value: 7.1 %). The arrangement: scale not given: the % may be the effect or the level left. As to conditions: at 8 µg/mL.
The target is the same in data set [8]. As to the kind of experiment: Inhibition of Candida albicans SC5314 CYP51 assessed as eburicol composition of total sterols at 8 ug/ml by GC-MS method relative to control. Further details: scale not given: the % may be the effect or the level left. The note with it: at 8 µg/mL.
Data set [9] has the same target. The data set can be described thus: Inhibition of Candida albicans SC5314 CYP51 assessed as ergosterol composition of total sterols at 8 ug/ml by GC-MS method (reference value: 89.4 %). As to conditions: at 8 µg/mL. Further details: scale not given: the % may be the effect or the level left.

For orientation: MIC means the lowest concentration found to suppress growth.

As for `CC(C)NC(=O)[C@H](Cn1ccnc1)NC(=O)c1ccc(-c2ccccc2)cc1`, the MIC against Candida tropicalis, against Cryptococcus neoformans, with Candida albicans [1], in the data set on Candida albicans [2] and with Aspergillus fumigatus was > 16 µg/mL in each case.
With `CC(C)CNC(=O)[C@H](Cn1ccnc1)NC(=O)c1ccc(-c2ccccc2)cc1`, the MIC in the data set with Candida tropicalis, in the data set on Cryptococcus neoformans, in the data set on Candida albicans [1], with Candida albicans [2] and against Aspergillus fumigatus was > 16 µg/mL in each case.
As to `CC(C)OC(=O)[C@H](Cn1ccnc1)NC(=O)c1ccc(-c2ccccc2F)cc1`, the minimum inhibitory concentration (MIC) against Candida tropicalis is 0.0625 µg/mL (≈ 0.158 µM); with Cryptococcus neoformans, 1 µg/mL (≈ 2.53 µM); with Candida albicans [1], 0.25 µg/mL (≈ 0.632 µM); with Candida albicans [2], 0.0625 µg/mL (≈ 0.158 µM); in the data set on Candida albicans [3] it was 4 µg/mL (≈ 10.1 µM); in the data set on Aspergillus fumigatus it was > 16 µg/mL. In addition, in the data set with Candida albicans [4], it took 8 µg/mL (≈ 20.2 µM) to inhibit growth (MIC).
In the case of `Cc1ccccc1-c1ccc(C(=O)N[C@@H](Cn2ccnc2)C(=O)OCC(C)C)cc1`, the minimum inhibitory concentration (MIC) against Candida tropicalis was 4 µg/mL (≈ 9.86 µM); in the data set with Cryptococcus neoformans, > 16 µg/mL; in the data set on Candida albicans [1], > 16 µg/mL; against Candida albicans [2], > 16 µg/mL; against Aspergillus fumigatus it was > 16 µg/mL.
With `CC(C)OC(=O)[C@H](Cn1ccnc1)NC(=O)c1ccc(-c2ccc(F)cc2F)cc1`, the MIC with Candida tropicalis was 0.5 µg/mL (≈ 1.21 µM); against Cryptococcus neoformans, 8 µg/mL (≈ 19.4 µM); against Candida albicans [1] it was 2 µg/mL (≈ 4.84 µM); with Candida albicans [2], 1 µg/mL (≈ 2.42 µM); in the data set on Aspergillus fumigatus it was > 16 µg/mL.
With `CC(C)OC(=O)[C@H](Cn1ccnc1)NC(=O)c1ccc(-c2cc(F)ccc2F)cc1`, the minimal inhibitory concentration (MIC) was 0.0625 µg/mL (≈ 0.151 µM) in the data set with Candida tropicalis; 16 µg/mL (≈ 38.7 µM) against Cryptococcus neoformans; 1 µg/mL (≈ 2.42 µM) against Candida albicans [1]; 0.25 µg/mL (≈ 0.605 µM) against Candida albicans [2]; > 16 µg/mL in the data set with Aspergillus fumigatus.
On to `Cc1ccc(-c2ccc(C(=O)N[C@@H](Cn3ccnc3)C(=O)OC(C)C)cc2)cc1`, for which the minimum inhibitory concentration (MIC) was 0.0625 µg/mL (≈ 0.16 µM) with Candida tropicalis; 4 µg/mL (≈ 10.2 µM) with Cryptococcus neoformans; 0.5 µg/mL (≈ 1.28 µM) in the data set on Candida albicans [1]; 0.0625 µg/mL (≈ 0.16 µM) against Candida albicans [2]; > 16 µg/mL in the data set with Aspergillus fumigatus.
With `CC(C)OC(=O)[C@H](Cn1cncn1)NC(=O)c1ccc(-c2ccccc2)cc1`, the MIC is 2 µg/mL (≈ 5.28 µM) against Candida tropicalis; 16 µg/mL (≈ 42.3 µM) against Cryptococcus neoformans; 4 µg/mL (≈ 10.6 µM) with Candida albicans [1]; 0.25 µg/mL (≈ 0.661 µM) against Candida albicans [2]; > 16 µg/mL against Aspergillus fumigatus.
With `CC(C)OC(=O)[C@H](Cn1ccnc1)NC(=O)c1ccc(-c2ccc(OC(F)(F)F)cc2)cc1`, the MIC with Candida tropicalis is 0.5 µg/mL (≈ 1.08 µM); in the data set on Cryptococcus neoformans, 16 µg/mL (≈ 34.7 µM); with Candida albicans [1], 0.125 µg/mL (≈ 0.271 µM); against Candida albicans [2], 0.125 µg/mL (≈ 0.271 µM); in the data set on Aspergillus fumigatus, > 16 µg/mL.
In the case of `CC(C)OC(=O)[C@H](Cn1ccnc1)NC(=O)c1ccc(-c2ccccc2)cc1`, the minimum inhibitory concentration (MIC) is 0.0625 µg/mL (≈ 0.166 µM) against Candida tropicalis; 2 µg/mL (≈ 5.3 µM) in the data set on Cryptococcus neoformans; 0.25 µg/mL (≈ 0.662 µM) with Candida albicans [1]; 0.0312 µg/mL (≈ 0.0828 µM) against Candida albicans [2]; > 16 µg/mL in the data set with Aspergillus fumigatus.
The like results for `CC(C)OC(=O)[C@H](Cn1ccnc1)NC(=O)c1ccc(-c2ccc(F)cc2)cc1` were, in that order, 0.5 µg/mL (≈ 1.26 µM), > 16 µg/mL, 8 µg/mL (≈ 20.2 µM), 1 µg/mL (≈ 2.53 µM) and > 16 µg/mL.
As to `CC(C)COC(=O)[C@H](Cn1ccnc1)NC(=O)c1ccc(-c2ccccc2F)cc1`, the Activity in [5] is reported as 6.6%; in data set [6], 19.6%; in [7] it was 6.2%; in [8], 65.1%; in data set [9] it was 2.5%. The minimum inhibitory concentration (MIC) against Candida tropicalis is 0.0312 µg/mL (≈ 0.0763 µM); against Cryptococcus neoformans, 0.5 µg/mL (≈ 1.22 µM); against Candida albicans [1], 0.125 µg/mL (≈ 0.305 µM); against Candida albicans [2], 0.0312 µg/mL (≈ 0.0763 µM); against Candida albicans [3], 4 µg/mL (≈ 9.77 µM); against Aspergillus fumigatus it was > 16 µg/mL. The minimum inhibitory concentration (MIC) in the data set on Candida albicans [4] was 2 µg/mL (≈ 4.88 µM).
With `OC(Cn1cncn1)(Cn1cncn1)c1ccc(F)cc1F` [FLUCONAZOLE], the Activity in data set [5] is 6.8%; in [6], 18.2%; in [7], 4.9%; in data set [8] it was 68.1%; in data set [9], 2%. Besides, the MIC in the data set on Candida tropicalis is 1 µg/mL (≈ 3.27 µM); with Cryptococcus neoformans it was 4 µg/mL (≈ 13.1 µM); against Candida albicans [1], 1 µg/mL (≈ 3.27 µM); against Candida albicans [2] it was 0.5 µg/mL (≈ 1.63 µM); with Candida albicans [3], > 64 µg/mL; against Aspergillus fumigatus, > 16 µg/mL. The minimal inhibitory concentration (MIC) against Candida albicans [4] is > 64 µg/mL.
Take `CCC(C)n1ncn(-c2ccc(N3CCN(c4ccc(OCC5COC(Cn6cncn6)(c6ccc(Cl)cc6Cl)O5)cc4)CC3)cc2)c1=O` (stereo unspecified) [ITRACONAZOLE]: the minimum inhibitory concentration (MIC) in the data set with Candida tropicalis was 0.5 µg/mL (≈ 0.709 µM); in the data set on Cryptococcus neoformans it was 1 µg/mL (≈ 1.42 µM); against Candida albicans [1] it was 0.25 µg/mL (≈ 0.354 µM); with Candida albicans [2] it was 0.0625 µg/mL (≈ 0.0886 µM); against Aspergillus fumigatus, 4 µg/mL (≈ 5.67 µM).
